The values below come from ChEMBL document CHEMBL1149667, “Synthesis of ferulic ester dimers, functionalisation and biological evaluation as potential antiatherogenic and antiplasmodial agents” (Bioorg Med Chem, 2007).

Test [1] is described as follows: (§1) Cytoprotective effect on HMEC1 cells assessed as cell viability at 10 uM after 24 hrs by MTT assay. The format is functional. Particulars: Homo sapiens, HMEC-1, 24 h, read-out: Activity. In general terms: Formazan colour is commonly taken as a measure of viable cells.
Test [2] in a line: (§2) Cytoprotective effect on HMEC1 cells assessed as cell viability by MTT assay. Type of test: functional, Homo sapiens, HMEC-1.
Test [3] deals with HMEC-1. The test is described as follows: Effect on HMEC1 cells-mediated LDL oxidation at 10 uM after 6 hrs by TBARS assay. Type of test: functional, Homo sapiens.
Test [4] relates to HMEC-1. The test is described as §1. The format is functional. Conditions: Homo sapiens.
In test [5] the test system is HMEC-1. The test is described as §2. Type of test: functional. Particulars: Homo sapiens.
Test [6] has as its system Plasmodium falciparum. Kind of test: Antiplasmodial activity against Plasmodium falciparum FCM29 at 10 ug/mL as [3H]hypoxanthine uptake. The format is functional.
Test [7] has as its system P388. The test is described as follows: Cytotoxicity against mouse P388 cells at 10 ug/mL after 72 hrs. Type of test: functional. Conditions: P388, 72 h.
The test system of test [8] is HMEC-1. Kind of test: Effect on HMEC1 cells-mediated LDL oxidation at 100 uM after 6 hrs by TBARS assay. Type of test: functional, cell-based. Particulars: Homo sapiens.
For test [9], the system named is Plasmodium falciparum. Kind of test: Antiplasmodial activity against Plasmodium falciparum FCM29 by [3H]hypoxanthine uptake. Type of test: functional, organism-based.
The test system of test [10] is P388. The test is described as follows: Cytotoxicity against mouse P388 cells after 72 hrs. Particulars: P388, 72 h. Type of test: functional, cell-based.

Activity calls are given as the source filed them. The rule behind the calls is not given here.

For `CC(C)(Sc1cc(C(C)(C)C)c(O)c(C(C)(C)C)c1)Sc1cc(C(C)(C)C)c(O)c(C(C)(C)C)c1` [PROBUCOL], the viability at 10 µM in [1] was 55%. The results for the Activity (in test [2]; in the test with HMEC-1 [3]) were 92% and 10%, respectively.
As for VITAMIN E, the Activity was 40% with HMEC-1 [4], 29% with HMEC-1 [5] and 55% in the test with HMEC-1 [3] (Homo sapiens).
As a reminder, the inhibition is how much of the control response was suppressed. Low values mean little suppression, high ones strong suppression. For `COC(=O)/C=C/c1cc(OC)c2c(c1)C(CO)C(c1ccc(O)c(OC)c1)O2` (stereo not drawn), the viability at 10 µM in test [1] turned out to be 40%. Also, the inhibition at 10 µg/mL in the test with Plasmodium falciparum [6] was found to be 25.7%; in the test with P388 [7], 8.63%. Also, in the test on HMEC-1 [8], the result was Active.
Usually IC50 stands for the concentration that gives 50% inhibition. A higher IC50 goes with a need for much substance. In the case of `COC(=O)/C=C/c1cc(OC)c2c(c1)C(COC(=O)c1cc(O)c(O)c(O)c1)C(c1ccc(O)c(OC)c1)O2` (stereo not drawn), the viability at 10 µM in test [1] is 40%. Further, the results for the Activity (in [2]; with HMEC-1 [3]) were 59.9% and 2.2%, respectively. Besides, the values for the inhibition at 10 µg/mL with Plasmodium falciparum [6] and with P388 [7] were 93.7% and 16.4%, respectively. The IC50 with Plasmodium falciparum [9] stood at 798 nM.
For the compound `COC(=O)/C=C/c1ccc(O/C(=C\c2ccc(O)c(OC)c2)C(=O)OC)c(OC)c1`, in test [1], the viability at 10 µM was 40%. Besides, the outcome in the test on HMEC-1 [5] and with HMEC-1 [3] (Homo sapiens) was Active. Also, the inhibition at 10 µg/mL in the test on Plasmodium falciparum [6] stood at 23.8%; in the test with P388 [7], 0%.
The compound `CC[C@@]1(O)C(=O)OCc2c1cc1n(c2=O)Cc2cc3ccccc3nc2-1` [CAMPTOTHECIN] came in with a half-maximal inhibitory concentration (IC50) in the test on P388 [10] of 32.1 nM.
As for `COC(=O)/C=C/c1cc(OC)c2c(c1)C(C(=O)OC)C(c1ccc(O)c(OC)c1)O2` (stereo not drawn), the viability at 10 µM in [1] was found to be 40%. In addition, the 50% inhibitory concentration (IC50) with P388 [10] is 772 nM. In addition, the result in the test with HMEC-1 [5] and in the test on HMEC-1 [3] (Homo sapiens) was Active. For the same compound, the results for the inhibition at 10 µg/mL with Plasmodium falciparum [6] and in the test on P388 [7] were 0% and 85.2%, respectively.
